For assay [1], the system named is cancer cell lines HT-29, A549, Hep3B, MDA-MB231, SkBr-3, MCF7, MiaPaCa-2, SKOV-3, PC-3. Put plainly: Cancer cell line viability in vitro. The assay is classed as cell-based. As to conditions: 100 μM coenzyme Q10; evident as early as 24 hours, increased progressively between 48 and 72 hours; all cell lines tested. On the procedure:
Various cancer cell lines were treated with coenzyme Q10 at 100 μM concentration to determine the effect on cancer cell viability. The cancer cell lines tested were HT-29 (colon), A549 (lung), Hep3B (liver), MDA-MB231 (breast), SkBr-3 (breast), MCF7 (breast), MiaPaCa-2 (pancreas), SKOV-3 (ovary), and PC-3 (prostate). Cell viability was measured between 24 and 72 hours. […] For example. […] The text at the bottom of the graph in FIG. 6 represents the gene mutation and mutation rate for each cell line. For example, the HT-29 cell line contains the APC mutation with a mutation rate of 126.

In assay [2] the test system is MIAPaCa-2 human pancreatic tumor cells. The assay can be described thus: Pancreatic cancer (MIAPaCa-2) mouse model, survival. The class given is in vivo, NOD scid gamma (NSG) mice. On the procedure: For example, FIG. 7 is a schematic describing a study investigating three different dosing regimens for coenzyme Q10 in an animal model of pancreatic cancer. The effect of coenzyme Q10 alone or in combination with gemcitabine on total survival in a preclinical mouse model of pancreatic cancer was evaluated.
Equal numbers of MIAPaCa-2 human pancreatic tumor cells were suspended in […]® and injected into NOD scid gamma (NSG) mice. The NSG mouse model is devoid of innate and adaptive immune systems and provides a biological environment suitable for the growth of human tumors in vivo. The MIAPaCa-2 is a well established human derived pancreatic carcinoma cell line that can be used to establish pancreatic tumors in immunosuppressed animals. MIAPaca-2 tumors were allowed to develop for, on average, at least 3 weeks in mice prior to initiation of treatment. Animals with palpable tumors were randomized into treatment groups.
The three treatment regimens utilized for the study included once/daily, twice/daily or thrice/daily dosing of coenzyme Q10 at either 50 mg/kg body weight (Regimen 1 & Regimen 2) or 50 mg/kg or 75 mg/kg body weight (Regimen 3) alone or in combination with a fixed dose of gemcitabine (150) mg/kg body weight). For example, mice treated twice/daily received two 50 mg/kg doses of coenzyme Q10, for a total of 100 mg/kg/day, and mice treated thrice daily received three 50 mg/kg doses of coenzyme Q10 for a total of 150 mg/kg/day. Each group of animals received chemotherapeutic treatment for a minimum of three cycles and was maintained to determine outcomes.
Next, a continuous infusion protocol was implemented to determine the effect of constant coenzyme Q10 administration on survival in an animal model of pancreatic cancer. An infusion pump was surgically installed in the animals to facilitate continuous infusion of coenzyme Q10 at a dose of 25 mg/kg, 50 mg/kg or 100 mg/kg body weight per day. Treatment was continued throughout the entire duration of the study.

The subject of a further assay is solid tumors. Put plainly: Phase 1a/b study, 96-hour continuous IV infusion: tumor response and PET. The class given is in vivo, human. The method, then: Assessments of the antitumor activity of coenzyme Q10 is performed at the end of Cycle 2 and every 2 cycles thereafter using standard techniques such as computerized tomography (CT) or magnetic resonance imaging (MRI) for patients with measurable disease. Response is evaluated using Response Evaluation Criteria in Solid Tumors (RECIST) v1.1. Patients who experience no unacceptable toxicity or disease progression, may receive additional 28-day cycles for up to 1 year on Arm 1 or 2. Patients on Arm 1 who progress may elect to continue coenzyme Q10 treatment in combination with gemcitabine, 5-FU, or docetaxel at the treating physician's discretion. Once a dose level of coenzyme Q10 monotherapy is evaluated and the CRC determines it safe to escalate to the next dose level, Cohort 1 of Treatment Arm 2 of coenzyme Q10 in combination with chemotherapy will open to accrual. Cohort 1 of Arm 2 patients are enrolled onto one of 3 chemotherapies, gemcitabine, 5-FU, or docetaxel. Cycle 1 of combination therapy (Arm 2) is 6 weeks in duration for patients with coenzyme Q10 administered twice weekly on Mondays and Wednesday for 6 weeks and chemotherapy administered on Fridays, Days 19, 26 and 33. Cycles 2-12 are 4 weeks in duration with coenzyme Q10 administered twice weekly on Mondays and Wednesdays for 4 weeks and chemotherapy administered on Fridays, Days 5, 12 and 19. Dose limiting toxicities are assessed during Cycle 1. Response is assessed after Cycle 2 (10 weeks) and responders who continue onto Cycles 2-12 are assessed every 2 cycles (8 weeks). […] Patients on Arm 2 who progress on one type of chemotherapy may not switch to one of the other chemotherapy agents in combination with coenzyme Q10. However, if the chemotherapy component (i.e., 5-FU, gemcitabine, or docetaxel) of combination therapy is discontinued due to chemotherapy-related toxicity, patients may continue to receive coenzyme Q10 as monotherapy.
Blood samples for pharmacokinetic and pharmacodynamic analyses are collected during each cycle of monotherapy and combination therapy. Urine samples for determination of coenzyme Q10 renal clearance are collected only during Cycle 1 of monotherapy and combination therapy. A PET scan is performed within 2 weeks prior to starting treatment and after 2 weeks of coenzyme Q10 treatment, and 8 weeks of treatment on Arm 1 or 10 weeks of treatment on Arm 2. Core biopsies (2-3) are performed at the time of baseline and Week 2 PET scan for patients who opt-in to participate in these exploratory studies.

[3] abbreviates: Patient 1, 66 mg/kg week monotherapy, end of two cycles.

These results are taken from patent publication US12653776B2, “Methods of treatment of cancer by continuous infusion of coenzyme Q10” (priority 2013, dated 2026).

With coenzyme Q10, the cell viability entry in assay [1] was “decrease in cell viability”. The survival result in assay [2] (coenzyme Q10 alone, once/twice/thrice daily 50 mg/kg (or 75 mg/kg), vs untreated or chemotherapy alone) is given as “increase in survival”. The survival rates entry in assay [2] (coenzyme Q10 in combination with gemcitabine 150 mg/kg) is “higher survival rates than coenzyme Q10 alone or gemcitabine alone”; in assay [2] (continuous infusion) it was “higher survival rates than those treated with continuous infusion of 50 mg/kg or 25 mg/kg”. The survival rate entry in assay [2] (continuous infusion 25 mg/kg body weight per day vs 50 mg/kg three times per day) is recorded as “higher survival rate”. Besides, the animal survival result in assay [2] (increasing 50 mg/kg doses from once/daily to three times per day) is on record as “significant improvement in animal survival”. Further, the “patients evaluable for efficacy showing various responses” value in the assay with solid tumors (Eight out of twelve patients, after dose level 2) is listed as 75%. For the same substance, the multiomics tissue analysis entry in the assay with solid tumors (Patient 1, 66 mg/kg week monotherapy) is “switch from anaerobic driven markers to oxidative phosphorylation”. Also, the “cervical lymph node metastases” value in the assay on solid tumors (setting [3]) is “disappearance of cervical lymph node metastases”. Further, the “size of the target lesion” value in the assay on solid tumors (setting [3]) is given as “minimal changes”. The “decrease on PET-SUV” value in the assay on solid tumors (Patient 1, gastric adenocarcinoma, 66 mg/kg week monotherapy, end of two cycles) stood at 40%. Further, in the assay on solid tumors (Patient 1 after switch to combination arm adding weekly docetaxel), the PET/CT response result is given as “again showed metabolic responses by PET/CT”. Besides, in the assay with solid tumors (Patient 2, gemcitabine + coenzyme Q10 66 mg/kg, Week 10 PET, from 2.3), the “Max SUV, Right iliac bone lesion” value is given as 1.9. The “Max SUV, Omentum lesion 2” value in the assay with solid tumors (Patient 2, gemcitabine + coenzyme Q10 66 mg/kg, Week 10 PET, from 3.5) was determined as 2.8. In addition, the non-target lesion response result in the assay on solid tumors (Patient 2, gemcitabine + coenzyme Q10 66 mg/kg, lesion in the abdomen) was “complete response in one of the non-target lesions”. The “Max SUV, Omentum lesion 1” value with solid tumors (Patient 2, metastatic bladder cancer, gemcitabine + coenzyme Q10 66 mg/kg, Week 10 PET, previous value 1.7) amounted to 0.8. The “outcomes by RECIST criteria” value in the assay on solid tumors (expected at the end of the ongoing study) was “clinically relevant outcomes”. For the same substance, in the assay with solid tumors (gastric, pancreatic, colon, head and neck, NSCLC, mesothelioma, TN breast cancer), the “antitumor activity in a variety of solid tumors” value is reported as “showed early activity at low doses”.
